Experimental data published in article PMC7720687 (ERJ Open Research, 2020).

Tests used:
[1] = target: T1, epithelial sodium channel (ENaC) (Homo sapiens, UniProt P37088+P51168+P51170); assay: Ussing chamber, amiloride-sensitive short-circuit current in NCI-H441 monolayers; format: cell-based
T1 sequence (P37088 1-669): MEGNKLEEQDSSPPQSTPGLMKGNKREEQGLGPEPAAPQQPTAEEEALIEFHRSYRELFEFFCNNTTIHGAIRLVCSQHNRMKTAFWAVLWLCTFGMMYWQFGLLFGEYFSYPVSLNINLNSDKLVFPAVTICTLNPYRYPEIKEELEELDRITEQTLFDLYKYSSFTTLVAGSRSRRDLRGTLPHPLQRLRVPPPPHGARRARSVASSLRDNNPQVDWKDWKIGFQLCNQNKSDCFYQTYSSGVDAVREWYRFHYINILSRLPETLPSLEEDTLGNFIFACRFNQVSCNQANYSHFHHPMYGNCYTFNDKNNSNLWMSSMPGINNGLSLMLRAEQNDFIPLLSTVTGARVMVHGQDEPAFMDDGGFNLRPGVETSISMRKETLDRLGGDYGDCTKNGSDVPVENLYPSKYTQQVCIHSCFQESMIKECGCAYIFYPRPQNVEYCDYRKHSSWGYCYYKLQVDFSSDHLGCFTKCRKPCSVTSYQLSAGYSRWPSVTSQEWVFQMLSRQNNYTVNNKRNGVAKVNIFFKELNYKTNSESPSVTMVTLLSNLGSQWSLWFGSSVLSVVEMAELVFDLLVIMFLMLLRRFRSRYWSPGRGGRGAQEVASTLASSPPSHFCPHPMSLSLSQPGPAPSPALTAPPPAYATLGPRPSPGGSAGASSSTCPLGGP
T1 sequence (P51168 1-640): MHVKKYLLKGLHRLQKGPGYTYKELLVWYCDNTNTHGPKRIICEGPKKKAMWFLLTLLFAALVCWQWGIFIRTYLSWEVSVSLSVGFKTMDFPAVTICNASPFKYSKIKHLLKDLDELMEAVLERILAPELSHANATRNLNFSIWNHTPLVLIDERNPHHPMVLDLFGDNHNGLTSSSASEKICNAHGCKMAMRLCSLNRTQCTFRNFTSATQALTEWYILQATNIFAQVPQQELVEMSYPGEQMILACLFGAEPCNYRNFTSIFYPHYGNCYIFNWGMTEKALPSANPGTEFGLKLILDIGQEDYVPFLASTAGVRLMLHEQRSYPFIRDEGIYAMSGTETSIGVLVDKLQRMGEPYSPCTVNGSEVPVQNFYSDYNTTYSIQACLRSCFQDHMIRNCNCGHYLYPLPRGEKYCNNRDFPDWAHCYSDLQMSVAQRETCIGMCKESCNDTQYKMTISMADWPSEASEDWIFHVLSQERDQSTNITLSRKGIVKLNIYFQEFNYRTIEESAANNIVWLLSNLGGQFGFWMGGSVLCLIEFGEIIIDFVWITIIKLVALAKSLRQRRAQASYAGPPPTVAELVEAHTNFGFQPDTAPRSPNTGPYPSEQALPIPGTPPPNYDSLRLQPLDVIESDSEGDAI
T1 sequence (P51170 1-649): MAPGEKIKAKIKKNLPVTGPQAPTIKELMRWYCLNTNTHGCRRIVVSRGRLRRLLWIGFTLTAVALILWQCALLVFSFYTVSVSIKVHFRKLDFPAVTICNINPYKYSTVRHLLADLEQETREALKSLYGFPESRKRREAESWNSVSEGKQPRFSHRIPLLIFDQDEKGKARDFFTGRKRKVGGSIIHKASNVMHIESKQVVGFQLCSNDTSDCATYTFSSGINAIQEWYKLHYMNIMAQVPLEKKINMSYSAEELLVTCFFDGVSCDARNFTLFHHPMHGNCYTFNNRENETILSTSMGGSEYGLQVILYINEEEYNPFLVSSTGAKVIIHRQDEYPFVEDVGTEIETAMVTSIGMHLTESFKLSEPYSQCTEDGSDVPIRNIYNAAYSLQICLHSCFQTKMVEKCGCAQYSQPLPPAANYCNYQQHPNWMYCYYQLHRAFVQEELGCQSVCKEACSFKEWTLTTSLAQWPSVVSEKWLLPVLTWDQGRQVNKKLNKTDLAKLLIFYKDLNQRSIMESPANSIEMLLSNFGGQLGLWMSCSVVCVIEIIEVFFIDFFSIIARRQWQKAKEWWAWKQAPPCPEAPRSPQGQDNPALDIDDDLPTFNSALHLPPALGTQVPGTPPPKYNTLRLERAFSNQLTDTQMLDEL

[2] = target: T2, epithelial sodium channel (ENaC) (Mus musculus, UniProt Q61180+Q9WU38+Q9WU39); assay: Ussing chamber, amiloride-sensitive short-circuit current in M1 monolayers; format: cell-based
T2 sequence (Q61180 1-699): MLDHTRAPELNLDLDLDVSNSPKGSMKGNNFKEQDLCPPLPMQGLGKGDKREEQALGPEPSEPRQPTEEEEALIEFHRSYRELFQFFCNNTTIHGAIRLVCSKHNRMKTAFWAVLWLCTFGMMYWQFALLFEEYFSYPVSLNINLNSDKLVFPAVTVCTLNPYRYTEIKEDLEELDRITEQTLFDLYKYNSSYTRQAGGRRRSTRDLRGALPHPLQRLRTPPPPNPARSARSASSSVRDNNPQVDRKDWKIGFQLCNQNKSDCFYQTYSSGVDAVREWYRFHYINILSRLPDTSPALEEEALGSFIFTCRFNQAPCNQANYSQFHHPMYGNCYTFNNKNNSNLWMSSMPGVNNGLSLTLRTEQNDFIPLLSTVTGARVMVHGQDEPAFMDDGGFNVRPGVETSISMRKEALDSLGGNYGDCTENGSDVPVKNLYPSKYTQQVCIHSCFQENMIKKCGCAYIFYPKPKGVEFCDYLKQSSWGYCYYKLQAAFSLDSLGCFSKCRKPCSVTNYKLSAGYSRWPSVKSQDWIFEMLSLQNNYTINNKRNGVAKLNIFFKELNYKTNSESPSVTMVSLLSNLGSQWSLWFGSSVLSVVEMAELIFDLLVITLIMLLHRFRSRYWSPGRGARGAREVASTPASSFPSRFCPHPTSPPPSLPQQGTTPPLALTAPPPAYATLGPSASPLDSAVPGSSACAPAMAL
T2 sequence (Q9WU38 1-638): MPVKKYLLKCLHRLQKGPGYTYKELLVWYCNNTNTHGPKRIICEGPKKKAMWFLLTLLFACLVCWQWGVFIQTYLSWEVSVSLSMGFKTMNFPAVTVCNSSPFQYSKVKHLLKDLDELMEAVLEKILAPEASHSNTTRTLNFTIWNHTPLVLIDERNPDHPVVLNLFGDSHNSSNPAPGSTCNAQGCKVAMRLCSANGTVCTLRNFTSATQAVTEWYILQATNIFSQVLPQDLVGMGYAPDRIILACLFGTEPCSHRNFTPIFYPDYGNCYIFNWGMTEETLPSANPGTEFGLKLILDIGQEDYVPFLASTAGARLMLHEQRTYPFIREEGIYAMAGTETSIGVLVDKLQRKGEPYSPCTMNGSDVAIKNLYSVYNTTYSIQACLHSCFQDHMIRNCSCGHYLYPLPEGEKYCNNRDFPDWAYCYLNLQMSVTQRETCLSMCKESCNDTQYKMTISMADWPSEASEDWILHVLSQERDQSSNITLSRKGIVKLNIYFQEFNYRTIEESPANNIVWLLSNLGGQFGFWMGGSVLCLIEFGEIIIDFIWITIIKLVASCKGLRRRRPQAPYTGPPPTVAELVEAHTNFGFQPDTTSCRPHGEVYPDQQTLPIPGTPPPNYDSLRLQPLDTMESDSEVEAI
T2 sequence (Q9WU39 1-655): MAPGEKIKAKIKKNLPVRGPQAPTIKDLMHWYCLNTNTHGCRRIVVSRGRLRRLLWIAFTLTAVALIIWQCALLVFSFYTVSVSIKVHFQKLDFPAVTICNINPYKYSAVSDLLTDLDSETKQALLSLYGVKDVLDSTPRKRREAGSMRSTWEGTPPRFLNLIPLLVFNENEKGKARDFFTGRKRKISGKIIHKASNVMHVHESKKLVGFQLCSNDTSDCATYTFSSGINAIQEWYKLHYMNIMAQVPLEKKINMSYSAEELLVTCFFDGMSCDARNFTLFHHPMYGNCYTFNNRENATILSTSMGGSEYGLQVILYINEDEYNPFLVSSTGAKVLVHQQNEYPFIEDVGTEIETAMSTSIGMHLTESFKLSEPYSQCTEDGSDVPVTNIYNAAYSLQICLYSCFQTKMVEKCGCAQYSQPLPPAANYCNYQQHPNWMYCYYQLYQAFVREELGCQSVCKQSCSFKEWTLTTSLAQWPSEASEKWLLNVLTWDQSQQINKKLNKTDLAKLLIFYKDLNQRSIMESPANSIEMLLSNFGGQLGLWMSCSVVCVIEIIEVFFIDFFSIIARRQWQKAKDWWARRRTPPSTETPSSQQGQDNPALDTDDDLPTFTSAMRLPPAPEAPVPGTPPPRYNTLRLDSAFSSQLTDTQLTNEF

BI 1265162
IC50 [1]: 8 nM | IC50 [2]: 3 nM
